Read-outs that look alike come from different tables or passages of the source.
Experiments:
serotonine receptors = experiment: blocking of serotonine receptors
Text: (§1) 1,3-Bis(2',6'-dimethylphenyl)-2-imino-4-methyl-imidazoline fumarate is far more advantageous than Indomethacine also with regard to its toxicological properties. […] Based on the above, the new compound according to the invention can be applied in the treatment of inflammatory disorders with a far greater degree of safety than Indomethacine.

histamine receptors = experiment: blocking of histamine receptors
Text: as §1

adjuvant arthritis = adjuvant arthritis test; settings: in vivo
[1] = in vivo
Text: as §1

[2] = tested on: carrageenin-induced plantar oedema; experiment: carrageenin-induced plantar oedema test; format: in vivo, rats; settings: Rattus norvegicus, read-out: ED50 value, carrageenin-induced plantar oedema test
cotton granuloma = cotton granuloma test; settings: in vivo
[3] = tested on: prostaglandine synthetase enzyme; experiment: inhibition of prostaglandine synthetase enzyme; format: biochemical
Text: as §1

[4] = LD50 determined on rats after oral administration; settings: rat, in vivo
Text: as §1

gastric acid secretion = experiment: gastric acid secretion; settings: in vivo
Text: as §1

[5] = tested on: sodium:potassium ratio of the urine; experiment: saluretic / DOCA-antagonizing effect, method of Kagawa (sodium:potassium ratio of the urine); format: in vivo, rats; settings: for potassium-retentive diuretic effect: in words
Text: This means that these compounds promote the excretion of sodium ions to a far greater extent than that of potassium ions, thus the sodium:potassium ratio measured in the urine is favourably high. The saluretic effect was examined on rats according to the method of Kagawa (J. Pharm. Exp. Ther. 126, 123 /1959/). The sodium:potassium ratio of the urine was decreased experimentally by introducing deoxycorticosterone acetate (DOCA) into the animals, and the DOCA-antagonizing effects of the compounds were measured. The effects of the two new compounds examined in this test were essentially the same as that of Spironolactone, utilized as reference substance.

[6] = antiphlogistic effect (test not specified); settings: in vivo
urine excretion = experiment: Lipschitz test, urine excretion of rats; format: in vivo; settings: for Urine: 5 hr, control 5.82
Text: Some of the compounds according to the invention also exert favourable diuretic effects.

[7] = tested on: isolated rat uterine horn; experiment: spontaneous activity of isolated rat uterine horn in vitro
[8] = tested on: longitudinal smooth muscle of guinea pig ileum; experiment: spontaneous activity of the longitudinal smooth muscle of guinea pig ileum in vitro
[9] = first experiment, 480 μg/animal p.o. with hormone substitution (DOCA) 12.5 μg/animal s.c.
[10] = second experiment, 480 μg/animal p.o. with hormone substitution (DOCA) 12.5 μg/animal s.c.

Cc1cccc(C)c1N1CC(C)N(c2c(C)cccc2C)C1=N.O=C(O)/C=C/C(=O)O (centres unmarked) [1,3-bis(2',6'-dimethylphenyl)-2-imino-4-methyl-imidazolidine fumarate]
connection of the antiphlogistic effect with blocking of serotonine receptors (serotonine receptors): not connected with the blocking of serotonine or histamine receptors | connection of the antiphlogistic effect with blocking of histamine receptors (histamine receptors): not connected with the blocking of serotonine or histamine receptors | activity in the adjuvant arthritis test (adjuvant arthritis): considerable activity | ulcerogeneous side effect [1]: far lower than that of Indomethacine | ED50 ([2]; rats, oral administration): 11 mg/kg | activity in the cotton granuloma test (cotton granuloma): considerable activity | inhibition of prostaglandine synthetase enzyme [3]: does not inhibit the function of prostaglandine synthetase enzyme | LD50 [4]: 150 mg/kg | gastric acid secretion (gastric acid secretion): decreases gastric acid secretion to a medium degree

COc1ccc(COC(=O)N=C2N(c3c(C)cccc3C)CC(C)N2c2c(C)cccc2C)cc1 (centres unmarked) [1,3-Bis(2',6'-dimethylphenyl)-2-(p-methoxy-benzyloxycarbonyl)-imino-4-methyl-imidazolidine]
potassium-retentive diuretic effect [5]: strong potassium-retentive diuretic effect

Cc1cccc(C)c1N1CC(CCl)N(c2c(C)cccc2C)C1=N (centres unmarked) [1,3-Bis(2',6'-dimethylphenyl)-2-imino-4-chloromethyl-imidazolidine]
antiphlogistic effects [6]: significant antiphthlogistic effects

NC(N)=O [Urea, reference compound]
Urine (urine excretion; 960 mg/kg p.o.): 11.54 ml/kgx5 hr.

Cc1cccc(C)c1N1CC(C(=O)O)N(c2c(C)cccc2C)C1=N (centres unmarked) [1,3-Bis(2',6'-dimethylphenyl)-2-imino-imidazolidine-4-carboxylic acid]
antiphlogistic effects [6]: significant antiphthlogistic effects

CCOC(=O)NC(=S)N=C1N(c2c(C)cccc2C)CC(C)N1c1c(C)cccc1C (centres unmarked) [1-(1',3'-Bis/2",6"-dimethylphenyl/-4'-methyl-imidazolidine-2'-ylidene)-3-carbethoxy-thiourea]
Effects* [5, 9]: 1.02 | Urine (urine excretion; 25 mg/kg p.o.): 11.16 ml/kgx5 hr. | diuretic effect / increase of urine excretion (urine excretion; rats, compared with urea): increases the urine excretion of rats to the same degree as urea

CC(=O)S[C@@H]1CC2=CC(=O)CC[C@]2(C)[C@H]2CC[C@@]3(C)[C@@H](CC[C@@]34CCC(=O)O4)[C@H]12 [Spironolactone, reference compound]
Effects* [5, 9]: 1.17 | Effects* [5, 10]: 1.19

Cc1cccc(C)c1N1C(=N)N(c2c(C)cccc2C)[C@@H](C)[C@H]1C [1,3-Bis(2',6'-dimethylphenyl)-2-imino-4,5-cis-dimethylimidazolidine]
potassium-retentive diuretic effect [5]: also exert potassium-retentive diuretic effect, they are, however, less effective than the compounds listed in Table 2

COc1ccc2c(c1)c(CC(=O)O)c(C)n2C(=O)c1ccc(Cl)cc1 [Indomethacine, reference compound]
ED50 ([2]; po): 20 mg/kg | LD50 [4]: 20 mg/kg

CC(=O)OCC(=O)[C@H]1CC[C@H]2[C@@H]3CCC4=CC(=O)CC[C@]4(C)[C@H]3CC[C@]12C [DOCA, deoxycorticosterone acetate, reference compound]
Effects* ([5]; first experiment, DOCA alone, 12.5 μg/animal s.c.): 0.75 | Effects* ([5]; second experiment, DOCA alone, 12.5 μg/animal s.c.): 0.88

Cc1cccc(C)c1N1CC(C)N(c2c(C)cccc2C)C1=N (centres unmarked) [1,3-Bis(2',6'-dimethylphenyl)-2-imino-4-methylimidazolidine]
spontaneous activity of isolated rat uterine horn [7]: increase the spontaneous activity | potassium-retentive diuretic effect [5]: also exert potassium-retentive diuretic effect, they are, however, less effective than the compounds listed in Table 2 | spontaneous activity of the longitudinal smooth muscle of guinea pig ileum [8]: increase the spontaneous activity

CC1CN(c2ccc(Cl)cc2)C(=N)N1c1ccc(Cl)cc1 (centres unmarked) [1,3-Bis(4'-chlorophenyl)-2-imino-4-methyl-imidazolidine]
antiphlogistic effects [6]: significant antiphthlogistic effects

COC(=O)C1CN(c2c(C)cccc2C)C(=N)N1c1c(C)cccc1C (centres unmarked) [Methyl 1,3-bis(2',6'-dimethylphenyl)-2-imino-imidazolidine-4-carboxylate]
potassium-retentive diuretic effect [5]: also exert potassium-retentive diuretic effect, they are, however, less effective than the compounds listed in Table 2

CCOC(=O)N=C1N(c2c(C)cccc2C)CC(C)N1c1c(C)cccc1C (centres unmarked) [1,3-Bis(2',6'-dimethylphenyl)-2-carbethoxyimino-4-methyl-imidazolidine]
Effects* [5, 10]: 1.19

Cc1cccc(N2CC(C)N(c3ccc(Cl)cc3)C2=N)c1C (centres unmarked) [1-(2',3'-Dimethylphenyl)-2-imino-3-(4'-chlorophenyl)-4-methyl-imidazolidine]
potassium-retentive diuretic effect [5]: also exert potassium-retentive diuretic effect, they are, however, less effective than the compounds listed in Table 2

Cc1cccc(C)c1N1C(=N)N(c2ccc(Cl)cc2)CC1C (centres unmarked) [1-(4'-Chlorophenyl)-2-imino-3-(2',6'-dimethylphenyl)-4-methyl-imidazolidine]
antiphlogistic effects [6]: significant antiphthlogistic effects

Cc1cccc(C)c1N1CC(CC(N)=O)N(c2c(C)cccc2C)C1=N (centres unmarked) [1,3-Bis(2',6'-dimethylphenyl)-2-imino-4-carboxamidomethyl-imidazolidine]
antiphlogistic effects [6]: significant antiphthlogistic effects

From US4369325A, “1,3-Diaryl-2-imino-imidazolidines and compounds” (EGYT Gyogyszervegyeszeti Gyar, priority 1978, dated 1983)
